Series [1] has as its system AHR. Put plainly: AHR modulation in NPCs, qPCR of AHR, CYP1A1, IDO1 and TDO2. It counts as cell-based, human. Particulars: at the concentrations tested; NPCs 24 h; FIGS. 10A-10D. Here is the method: FIGS. 10A-10D: AHR modulation in NPCs. NPCs were treated with I3S or a combination of I3S and CH223191. 24 h after treatment, NPCs were harvested for RNA extraction followed by qPCR analysis of AHR (FIG. 10A), CYP1A1 (FIG. 10B), IDO1 (FIG. 100) and TDO2 (FIG. 10D). Data represent the mean+s.e.m. from three independent experiments. P values were determined by Student's t-test.
RNA was extracted using the RNAeasy kit (Qiagen). cDNA was synthesized using the High-Capacity cDNA Reverse Transcription kit (Applied Biosystems) and qPCR was performed using TaqMan Fast Advanced Master Mix (Applied Biosystems). Gene expression was normalized to GAPDH. Primers and probes (Applied Biosystems) were: GAPDH Hs02786624_g1, IFNB1 Hs01077958_s1, AHR Hs00169233_m1, PML Hs00971694_m1, CYP1A1 Hs01054796_g1, IFITM1 Hs00705137_s1, CYP1B1 Hs02382916_s1, CXCL10 Hs00171042_m1, IDO1 Hs00984148_m1, IDO2 Hs01589373_m1, IFITM Hs00705137_s1, TDO Hs00194611_m1. Primers and probes for the specific detection of Zika virus RNA were utilized as previously described^81, 82. For viral load determination in vivo, brains and spleens from pups were macerated on trizol (Invitrogen) for RNA extraction. RNA pellets were resuspended in RNase-free water and quantified by spectrophotometry (NanoDrop—Thermo Scientific) and stored at −80° C. […] Quantification was compared with threshold cycle (Ct) value with a ZIKV plasmid standard curve.

For series [2], the system named is ZIKV (Puerto Rico strain, PRVABC59). Description: Flow cytometry quantification of HepG2 cells positive for Flavivirus antigen after ZIKV infection. The class given is cell-based, Zika virus. Particulars: HepG2, ZIKV moi=1, 48 h; FIG. 7C. Here is the method:
FIGS. 7A-7K: AHR signaling boosts ZIKV replication in vitro. Flow cytometry quantification of HepG2 cells positive for Flavivirus antigen. HepG2 cells were pre-treated with different concentrations of I3S, CH223191 or DMSO (vehicle) and infected with ZIKV (moi=1) for 48 h. Plots shown are representative of one experiment. Bar graphs (FIG. 7C) represent the mean+s.e.m. of Flavivirus antigen positive cells from at least three independent experiments. P values were determined by a one-way ANOVA followed by Tukey's post-hoc test.
Stock solutions of I3S and CH223191 were prepared in DMSO, aliquoted and stored according to manufacturer's instructions. For CH223191, cells were pre-treated for 90 minutes and then used for further studies. For I3S, cells were pre-treated overnight.
Cells were fixed and permeabilized using Cytofix/Cytoperm (BD Biosciences). Secondary antibody for flow cytometry was phycoerythrin (PE) goat anti-mouse IgG (BD Biosciences) at a concentration of 1:200. Cells were analyzed on a Guava easyCyte flow cytometer and data was processed using FlowJo software.
For orientation: In flow cytometry, cells or beads pass a laser one at a time.

Series [3] deals with AHR. Description: AHR modulation in A549 cells, qPCR of AHR and CYP1A1. Particulars: 24 h; FIG. 61. The class given is cell-based. As for the experimental part:
FIGS. 61A and 61B: AHR modulation by small molecules in A549 cells. A549 cells were treated with the indicated concentrations of I3S (FIG. 61A) or CH223191 (FIG. 61B) for 24 h. Then, cells were harvested for RNA extraction and qPCR analysis of AHR and CYP1A1.
On the technique in general: Quantitative PCR measures a nucleic acid by following its amplification.

In another series the test system is Cell cultures. Description: Cell viability by MTT assay. It counts as cell-based. Particulars: at the concentrations tested; FIGS. 9A-9B. As for the experimental part:
FIGS. 9A and 9B: Toxicity of I3S and CH223191. Cell viability after treatment for 24 h with different concentrations of I3S (FIG. 9A) and CH223191 (FIG. 9B) evaluated by MTT assay.
Cell cultures grown in 96-well plates were exposed for 48 h to serial two-fold compound dilutions, three wells for each concentration and viability was measured with 3-(4,5-dimethylthiazol-2-yl)-2,5-diphenyl tetrazolium bromide (MTT, Sigma-Aldrich).
On the technique in general: Tetrazolium dyes change colour on reduction, which living cells bring about.

Series [4] has as its system DENV-1, DENV-2, DENV-3, DENV-4. Description: DENV plaque assay of supernatants of A549 cells. The class given is cell-based, dengue virus. The settings on record: A549 pretreated 24 h, moi=0.1; FIG. 62. Here is the method: FIG. 62: AHR activation boosts DENV replication. A549 cells were pretreated with the indicated concentrations of I3S for 24 h and infected with DENV-2 (moi=0.1). 48 h p.i. supernatants were harvested for plaque assay.
FIGS. 63A-63D: AHR modulation affects DENV replication. Infectious virus particles in the supernatants of A549 cells pre-treated with CH2213191 and infected with DENV-1 (FIG. 63A), DENV-2 (FIG. 63B), DENV-3 (FIG. 63C) or DENV-4 (FIG. 63D) (moi=0.1). At 24 h p.i. supernatants were harvested for plaque assay.

The next series concerns ZIKV. Put plainly: Effect of inhibitors of IFN signaling on ZIKV replication in HepG2 cells, plaque assay. The class given is cell-based, Zika virus. The settings on record: HepG2 pre-treated 24 h, plaque assay 24 h p.i.; FIG. 22. Here is the method: HepG2 cells were pre-treated with DMSO (vehicle), JAK I Inhibitor, TSA, or NaF for 24 h and infected with ZIKV. Data represent the mean+s.e.m. from three independent experiments. P values were determined by a one-way ANOVA followed by Tukey's post-hoc test.
I3S (Indoxyl 3-sulfate, Sigma, used at 50-500 μM as indicated for each experiment), CH223191 (Tocris, used at 2-30 μM), Sodium fluoride (Sigma, 1 mM), Trichostatin A (Sigma, 100 nM), JAK I Inhibitor (Santa Cruz Biotechnology, 1 μM). HP163 was the generous gift of Hercules Pharmaceuticals, BV, (Galileiweg 8, 2333 BD, The Netherlands). CB7993113 has been described previously^80. HP163, is a monoalkylated amide of CB7993113 optimally formulated in a 5% tween, 45% PEG, 50% saline mixture. […] The structural formulas of the compounds used in this study are reproduced below.

Regarding `O=S(=O)(O)Oc1c[nH]c2ccccc12` [I3S, Indoxyl 3-sulfate], the “AHR inhibition / activation” value in the series on AHR [1] is “activation”. Moreover, the “percentage of HepG2 cells expressing viral antigen” value in series [2] is on record as “increased”. The “AHR activation in A549 cells” value in the series with AHR [3] is reported as “activated”. The cytotoxic effects entry in the series with Cell cultures is “no cytotoxic effects were detected”. Moreover, the “yield of the four DENV serotypes” value in series [4] is recorded as “increased”.
For the molecule `[F-].[Na+]` [NaF, Sodium fluoride], the “ZIKV replication in presence of drugs that block IFN-I signaling” value with ZIKV was “increase”.
Still for that read-out and setting: for `CC(/C=C/C(=O)NO)=C\[C@@H](C)C(=O)c1ccc(N(C)C)cc1` [trichostatin A] the value was “increase”.
JAK inhibitor I: the “ZIKV replication in presence of drugs that block IFN-I signaling” value in the series with ZIKV is “increase”.
